How the values were obtained:
[1] = tested on: human panelists (sweet taste); test: Paired comparison taste test: enhancement of sucrose at pH 7.1 (6% sucrose + compound vs. 10%, 11% or 12% sucrose); type: in vivo
Procedure: (§1) Experiment 1: Sweet Flavor and Sweet Flavor Enhancement Measurement Using Human Panelists Conducting a Paired Comparison Test
(§2) Test samples containing experimental compounds were presented in pairs to the panelist and they were asked to determine which of the sample is sweeter. […] A group of 10-16 or more panelists participated in each test. Subjects refrained from eating or drinking (except water) for at least 1 hour prior to the test. Subjects rinsed with water several times to clean the mouth.
(§3) Taste tests were performed with sucrose or HFCS as the sweetener in the presence or absence of compound. A 0.2% stock solution of compound in water with sodium bicarbonate was prepared and then this stock solution was diluted in the final sample to achieve the targeted final concentration of compound. For the sample evaluated at pH 2.8 the pH of the solution is decreased to about pH 2.8 using citric acid. Taste samples were also prepared in a low sodium phosphate buffer (pH 7.1; “LSB”) lacking sucrose or HFCS to evaluate the taste of the compound alone. Low sodium phosphate buffer consists of 0.3 mM KCl, 0.5 mM Na2HPO4, and 0.175 mM KH2PO4. Sample volumes are usually 20 ml.
(§4) In one paired comparison test, the panelist was presented with two different samples and asked to identify the sample which is sweeter. The samples within a paired comparison test were presented in a randomized, counterbalanced order. Panelists had up to a 1 minute delay between taste tests to clear the mouth of any tastes.
(§5) Binomial probability tables were used to determine the probability of the correct number of responses occurring for each test at alpha=0.05

[2] = tested on: human panelists (sweet taste); test: Paired comparison taste test: enhancement of sucrose at pH 2.8 (6% sucrose + compound vs. 10%, 11% or 12% sucrose); type: in vivo
Procedure: as §1, §2, §3, §4, §5

[3] = tested on: human panelists (sweet taste); test: Sweetness threshold: paired comparison taste test, LSB + compound vs. 1% sucrose; type: in vivo
Procedure: as §1, §2, §3, §4, §5

[4] = tested on: human panelists (sweet taste); test: Paired comparison taste test: enhancement of HFCS at pH 2.8 (6% HFCS + compound vs. 8% or 9% HFCS); type: in vivo
Procedure: as §1, §2, §3
In one paired comparison test, the panelist was presented with two different samples and asked to identify the sample which is sweeter. […]

[5] = 10% Sucrose vs 6% Sucrose + 10 ppm Compound A1, n = 32 (16 panelists × 2 reps)
[6] = 11% Sucrose vs 6% Sucrose + 5 ppm Compound A1, n = 33
[7] = 1% Sucrose vs LSB + 25 ppm Compound A1, n = 26 (13 panelists × 2 reps)

Row | SMILES | Sample selected as sweeter by panelists (Total) [1, 5] | Sample selected as sweeter by panelists (Total) [2, 6] | Sample selected as sweeter by panelists (Total) [3, 7] | melting point | also measured
1 | OC[C@H]1O[C@@](CO)(O[C@H]2O[C@H](CO)[C@@H](O)[C@H](O)[C@H]2O)[C@@H](O)[C@@H]1O [Sucrose, sucrose, reference compound] | 14 | 21 | 14 | – | Sample selected as sweeter by panelists (Total) ([1]; 11% Sucrose vs 6% Sucrose + 5 ppm Compound A6, n = 48 (16 panelists × 3 reps)): 24; Sample selected as sweeter by panelists (Total) ([2]; 12% Sucrose vs 6% Sucrose + 5 ppm Compound A6, n = 48 (16 panelists × 3 reps)): 22; Sample selected as sweeter by panelists (Total) ([3]; 1% Sucrose vs LSB + 10 ppm Compound A6, n = 30 (10 panelists × 3 reps)): 18
2 | CC(C)(COc1cccc2c1C(N)=NS(=O)(=O)N2)NC(=O)c1ccnc(-n2ccnc2N)c1.Cl | – | – | – | 235 to 237 °C (dec.) | –
3 | CC(C)(COc1cccc2c1C(N)=NS(=O)(=O)N2)NC(=O)c1ccnc(-n2cnc(C(=O)O)c2)c1 [Example 37, 1-(4-((1-((4-amino-2,2-dioxido-1H-benzo[c][1,2,6]thiadiazin-5-yl)oxy)-2-methylpropan-2-yl)carbamoyl)pyridine-2yl)1H-imidazole-4-carboxylic acid] | – | – | – | > 200 °C | –
4 | CC(C)(COc1cccc2c1C(N)=NS(=O)(=O)N2)NC(=O)c1ccncc1 [Compound A1, N-(1-(4-amino-2,2-dioxido-1H-benzo[c][1,2,6]thiadiazin-5-yloxy)-2-methylpropan-2-yl)isonicotinamide] | 18 | 12 | 12 | – | Sucrose solution of equivalent sweetness (% sucrose) ([1]; 10 ppm compound in 6% sucrose): ~10%; Sucrose solution of equivalent sweetness (% sucrose) ([2]; 5 ppm compound in 6% sucrose): ~11%; HFCS solution of equivalent sweetness (% High Fructose Corn Syrup) ([4]; 5 ppm compound in 6% High Fructose Corn Syrup): ~9%; Sample selected as sweeter by panelists (Total) ([4]; 9% High Fructose Corn Syrup vs 6% High Fructose Corn Syrup + 20 ppm Compound A1, n = 32 (16 panelists × 2 reps)): 12
5 | CC(C)(COc1cccc2c1C(N)=NS(=O)(=O)N2)NC(=O)c1ccnc(-n2cnc(CO)c2)c1 [Example 36, N-(1-((4-amino-2,2-dioxido-1H-benzo[c][1,2,6]thiadiazin-5-yl)oxy)-2-methylpropan-2-yl)-2-(4-(hydroxymethyl)-1H-imidazol-1-yl)isonicotinamide] | – | – | – | > 200 °C | –
